According to paper PMC6100189, “In Silico Docking and In Vitro Approaches towards BACE1 and Cholinesterases Inhibitory Effect of Citrus Flavanones” (Molecules : A Journal of Synthetic Chemistry and Natural …, 2018):

Tests used:
[1] = target: T1, BACE1 (Homo sapiens, UniProt P56817); experiment: BACE1 inhibition assay (Invitrogen kit, Rh-[…]-Quencher substrate); assay type: biochemical
T1 construct: purchased Invitrogen (Pan Vera, Madison, WI, USA)
Method: (§3) The BACE1 kit from Invitrogen (Pan Vera, Madison, WI, USA) was used for the measurement of BACE1 activity. α-Secretase (tumor necrosis factor-α converting enzyme, TACE) and its fluorogenic substrate were purchased from R&D Systems (Minneapolis, MN, USA). Elastase, chymotrypsin, trypsin, and their substrates were obtained from Sigma-Aldrich.
(§4) BACE1, TACE, chymotrypsin, trypsin, and elastase assays were carried out according to previously described methods [33]. BACE1, TACE, trypsin, chymotrypsin, and elastase assays were carried out using Rh-[sequence]-Quencher, Mca-PLAQAV-Dpa-RSSSR-NH2, N-benzoyl-l-Arg-pNA, N-benzoyl-L-Tyr-pNA, and N-succinyl-Ala-Ala-Ala-pNA as substrates, respectively.

[2] = target: T2, AChE (Electrophorus electricus, UniProt O42275); experiment: Inhibition kinetics on AChE (Dixon and Lineweaver–Burk plots); assay type: biochemical; conditions: for Inhibition mode on AChE: Dixon and Lineweaver–Burk plots; for Ki: Dixon plot
T2 construct: purchased Sigma-Aldrich (St. Louis, MO, USA)
Method: (§1) AChE and BChE inhibitory activities were assessed by a modified version of the Ellman colorimetric method. Each reaction mixture consisted of sodium phosphate buffer (pH 7.4), test sample solution, and either AChE (electrophorus electricus, 0.8 U/mL) or BChE (equine serum, 0.8 U/mL) solution, which was then mixed and incubated for 15 min at room temperature. Reactions were initiated upon addition of DTNB and substrate (0.75 mM).
(§2) The inhibitory constant (Ki) was obtained by interpretation of the Dixon plot, and Vmax and Km were defined by Lineweaver–Burk plots, using the initial velocities obtained over a substrate concentration range. These kinetic parameters were calculated using the Enzyme Kinetic™ module of SigmaPlot™ version 12.3 (Systat Software, Inc., San Jose, CA, USA).

[3] = test system: brains of rats; conditions: pre-administration 40 mg/kg, oral; no reference given; cited from earlier work
[4] = target: T3, α-secretase (tumor necrosis factor-α converting enzyme, TACE) (Homo sapiens, UniProt P78536); experiment: TACE (α-secretase) inhibition assay; assay type: biochemical; conditions: mean ± S.E., read-out: Inhibitory activities (%) TACE; for inhibition at 10 µM: sample 10 μM; for inhibition at 100 µM: sample 100 μM
T3 construct: purchased R&D Systems (Minneapolis, MN, USA)
Method: as §3, §4

[5] = target: T4, Elastase (Sus scrofa, UniProt P00772); experiment: Elastase inhibition assay; assay type: biochemical; conditions: mean ± S.E., read-out: Inhibitory activities (%) Elastase; for inhibition at 10 µM: sample 10 μM; for inhibition at 100 µM: sample 100 μM
T4 construct: purchased Sigma-Aldrich
Method: as §3, §4

[6] = test system: cholinesterases; conditions: several studies ref 20, 21; cited from earlier work
[7] = test system: Trypsin; experiment: Trypsin inhibition assay; assay type: biochemical; conditions: mean ± S.E.
Method: as §3, §4

[8] = target: T5, BChE (Equus caballus, UniProt P81908); experiment: BChE inhibition, modified Ellman colorimetric method; assay type: biochemical, equine; conditions: mean ± S.E. of triplicate experiments
T5 construct: BChE (equine serum, 0.8 U/mL); purchased Sigma-Aldrich (St. Louis, MO, USA); host or cells: equine serum
Method: (§5) AChE and BChE inhibitory activities were assessed by a modified version of the Ellman colorimetric method [34]. Each reaction mixture consisted of sodium phosphate buffer (pH 7.4), test sample solution, and either AChE (electrophorus electricus, 0.8 U/mL) or BChE (equine serum, 0.8 U/mL) solution, which was then mixed and incubated for 15 min at room temperature. Reactions were initiated upon addition of DTNB and substrate (0.75 mM).
Enzymatic hydrolysis, mediated by AChE or BChE, was monitored according to the formation of yellow 5-thio-2-nitrobenzoate anions at 405 nm for 15 min, which were produced by the reaction of DTNB with thiocholine released from ACh or BCh. All reactions were performed in 96-well plates in triplicate, and recorded using a microplate spectrophotometer (Molecular Devices, Sunnyvale, CA, USA).

[9] = target: T2, AChE; experiment: AChE inhibition, modified Ellman colorimetric method; assay type: biochemical; conditions: mean ± S.E. of triplicate experiments
Method: as §5
All reactions were performed in 96-well plates in triplicate, and recorded using a microplate spectrophotometer (Molecular Devices, Sunnyvale, CA, USA).

[10] = target: T1, BACE1; experiment: Inhibition kinetics on BACE1 (Dixon and Lineweaver–Burk plots); assay type: biochemical; conditions: for Inhibition mode on BACE1: Dixon and Lineweaver–Burk plots; for Ki: Dixon plot
Method: as §2

[11] = test system: ECV304/C6 co-culture model; conditions: in vitro ECV304/C6 co-culture model ref 27; cited from earlier work
[12] = test system: rat brain; conditions: cited from earlier work
[13] = target: T6, Chymotrypsin (Bos taurus, UniProt P00766); experiment: Chymotrypsin inhibition assay; assay type: biochemical; conditions: mean ± S.E., read-out: Inhibitory activities (%) Chymotrypsin; for inhibition at 10 µM: sample 10 μM; for inhibition at 100 µM: sample 100 μM
T6 construct: purchased Sigma-Aldrich
Method: as §3, §4

[14] = test system: APP/PS1 Tg mice; conditions: oral 100 mg/kg for 10 days ref 16; cited from earlier work
[15] = test system: APPswe/PS1dE9 Tg mice; conditions: chronic administration for 16 weeks ref 18; cited from earlier work
[16] = target: T5, BChE; experiment: Inhibition kinetics on BChE (Dixon and Lineweaver–Burk plots); assay type: biochemical, equine
Method: as §1, §2

[17] = test system: mice; conditions: orally 4.5 mg/kg body weight of mice ref 23; cited from earlier work
[18] = test system: AChE; conditions: previous study ref 19; read-out: IC50 against AChE; cited from earlier work

T2 sequence (O42275 24-633): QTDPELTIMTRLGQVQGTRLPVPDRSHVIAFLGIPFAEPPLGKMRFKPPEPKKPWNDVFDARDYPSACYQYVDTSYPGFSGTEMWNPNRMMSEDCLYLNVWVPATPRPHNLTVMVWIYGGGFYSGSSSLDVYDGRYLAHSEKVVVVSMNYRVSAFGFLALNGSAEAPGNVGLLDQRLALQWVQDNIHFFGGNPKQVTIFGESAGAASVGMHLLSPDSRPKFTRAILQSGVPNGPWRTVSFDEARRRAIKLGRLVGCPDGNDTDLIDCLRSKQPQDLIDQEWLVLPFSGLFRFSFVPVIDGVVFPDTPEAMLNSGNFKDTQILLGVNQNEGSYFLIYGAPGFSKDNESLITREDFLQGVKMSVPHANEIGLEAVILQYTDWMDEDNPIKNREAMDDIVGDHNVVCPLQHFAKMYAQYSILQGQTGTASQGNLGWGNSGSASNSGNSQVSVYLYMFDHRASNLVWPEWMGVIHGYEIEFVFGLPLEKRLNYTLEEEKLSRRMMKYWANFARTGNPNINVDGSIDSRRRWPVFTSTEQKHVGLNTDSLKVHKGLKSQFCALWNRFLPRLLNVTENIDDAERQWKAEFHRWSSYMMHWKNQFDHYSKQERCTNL
T3 sequence (P78536 215-824): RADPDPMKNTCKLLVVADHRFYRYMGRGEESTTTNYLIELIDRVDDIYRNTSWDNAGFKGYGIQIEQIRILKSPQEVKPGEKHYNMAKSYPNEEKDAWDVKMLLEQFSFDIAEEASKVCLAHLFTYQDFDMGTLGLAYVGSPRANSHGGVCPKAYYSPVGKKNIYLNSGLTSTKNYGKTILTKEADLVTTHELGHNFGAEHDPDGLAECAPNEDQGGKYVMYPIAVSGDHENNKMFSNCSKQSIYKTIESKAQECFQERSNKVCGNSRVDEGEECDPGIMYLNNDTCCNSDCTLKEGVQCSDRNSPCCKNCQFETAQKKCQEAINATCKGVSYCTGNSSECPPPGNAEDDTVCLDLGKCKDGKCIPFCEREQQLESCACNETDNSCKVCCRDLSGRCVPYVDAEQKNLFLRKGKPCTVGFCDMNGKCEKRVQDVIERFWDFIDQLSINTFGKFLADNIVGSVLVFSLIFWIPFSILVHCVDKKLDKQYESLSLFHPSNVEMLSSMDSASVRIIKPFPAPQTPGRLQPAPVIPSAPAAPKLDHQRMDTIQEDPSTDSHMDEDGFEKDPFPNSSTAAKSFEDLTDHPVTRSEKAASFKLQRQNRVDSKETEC
T4 sequence (P00772 27-266): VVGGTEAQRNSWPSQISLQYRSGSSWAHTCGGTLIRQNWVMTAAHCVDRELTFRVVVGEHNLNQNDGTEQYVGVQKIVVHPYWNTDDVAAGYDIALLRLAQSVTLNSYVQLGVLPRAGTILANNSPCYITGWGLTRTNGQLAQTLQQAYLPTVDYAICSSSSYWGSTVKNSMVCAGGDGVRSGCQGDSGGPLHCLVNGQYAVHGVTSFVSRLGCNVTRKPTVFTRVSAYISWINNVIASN
T5 sequence (P81908 whole entry): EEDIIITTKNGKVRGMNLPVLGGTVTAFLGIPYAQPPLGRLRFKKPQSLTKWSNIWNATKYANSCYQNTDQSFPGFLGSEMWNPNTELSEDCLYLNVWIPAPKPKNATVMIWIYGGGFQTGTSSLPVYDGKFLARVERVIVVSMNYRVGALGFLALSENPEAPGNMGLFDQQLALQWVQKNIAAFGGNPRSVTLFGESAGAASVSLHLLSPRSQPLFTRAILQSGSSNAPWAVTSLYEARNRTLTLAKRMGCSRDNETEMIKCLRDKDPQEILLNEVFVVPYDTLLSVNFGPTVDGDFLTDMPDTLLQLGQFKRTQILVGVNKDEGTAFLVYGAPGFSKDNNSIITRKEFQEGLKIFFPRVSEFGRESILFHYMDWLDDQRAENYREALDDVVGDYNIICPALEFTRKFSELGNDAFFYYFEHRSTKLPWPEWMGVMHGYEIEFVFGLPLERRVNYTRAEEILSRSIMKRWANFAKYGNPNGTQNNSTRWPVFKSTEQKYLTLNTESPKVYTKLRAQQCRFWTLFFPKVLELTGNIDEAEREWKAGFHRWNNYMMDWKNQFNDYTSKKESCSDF
T1 sequence (P56817 46-501): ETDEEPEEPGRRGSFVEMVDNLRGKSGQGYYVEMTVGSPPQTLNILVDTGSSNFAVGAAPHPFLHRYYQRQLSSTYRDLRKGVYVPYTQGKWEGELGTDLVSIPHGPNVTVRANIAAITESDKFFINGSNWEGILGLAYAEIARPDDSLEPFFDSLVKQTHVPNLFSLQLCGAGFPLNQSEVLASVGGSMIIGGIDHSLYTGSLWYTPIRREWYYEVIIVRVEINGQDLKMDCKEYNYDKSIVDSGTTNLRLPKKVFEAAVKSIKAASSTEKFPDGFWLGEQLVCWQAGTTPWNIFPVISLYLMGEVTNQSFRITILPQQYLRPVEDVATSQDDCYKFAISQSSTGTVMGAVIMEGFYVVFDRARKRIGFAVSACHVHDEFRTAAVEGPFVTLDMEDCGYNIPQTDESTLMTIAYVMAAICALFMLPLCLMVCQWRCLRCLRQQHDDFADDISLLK

| SMILES | IC50 [1] [µM] | Inhibition mode on AChE [2] | Ki [2] [µM] | inhibition at 10 µM [4] [%] | inhibition at 100 µM [4] [%] | inhibition at 10 µM [5] [%] | inhibition at 100 µM [5] [%] | Inhibitory activity against cholinesterases [6] | Inhibitory activities (%) Trypsin ([7]; sample 10 μM) [%] | Inhibitory activities (%) Trypsin ([7]; sample 100 μM) [%] | IC50 [8] [µM] | IC50 [9] [µM] | Inhibition mode on BACE1 [10] | Ki [10] [µM] | BBB crossing [11] | inhibition at 10 µM [13] [%] | inhibition at 100 µM [13] [%] | further results |
| --- | --- | --- | --- | --- | --- | --- | --- | --- | --- | --- | --- | --- | --- | --- | --- | --- | --- | --- |
| COc1ccc(C2CC(=O)c3c(O)cc(O)cc3O2)cc1O (stereo not drawn) [Hesperetin, 4′-methoxy-3′,5,7-trihydroxyflavanone] | 22.1 ± 1.81 | noncompetitive inhibition | 53.9 | 8.66 ± 0.7 | 11.3 ± 1.37 | 4.84 ± 0.46 | 9.95 ± 1.28 | low inhibitory activity | 5.31 ± 0.39 | 4.72 ± 0.45 | > 100 | 45.7 ± 2.69 | noncompetitive inhibition | 42.7 | cross the BBB | 4.91 ± 1.4 | 9.21 ± 0.33 | Effect on cadmium-induced damage in the brains of rats [3]: significantly attenuated cadmium-induced oxidative stress and mitochondrial dysfunction; Presence in the rat brain ([12]; after oral administration of hesperidin ref 31): detected in the rat brain; Presence in the striatum of rat brains ([12]; intravenous 50 mg/kg ref 29): detected in the striatum of rat brains |
| COc1ccc([C@@H]2CC(=O)c3c(O)cc(O[C@@H]4O[C@H](CO[C@@H]5O[C@@H](C)[C@H](O)[C@@H](O)[C@H]5O)[C@@H](O)[C@H](O)[C@H]4O)cc3O2)cc1O [Hesperidin, hesperidin] | 17 ± 1.25 | noncompetitive inhibition | 21.4 | 8.53 ± 1.05 | 9.19 ± 1.2 | 6.91 ± 0.83 | 6 ± 1.33 | low inhibitory activity | 2.27 ± 0.30 | 1.41 ± 0.22 | 48.1 ± 0.74 | 22.8 ± 2.78 | noncompetitive inhibition | 39.4 |  | 3.19 ± 0.28 | 4.11 ± 0.34 | Neuroprotective effect in APP/PS1 Tg mice [14]: recovered microglial activation, APP expression, Aβ deposition, and behavioral dysfunction; Effect of chronic administration in APPswe/PS1dE9 Tg mice [15]: attenuated oxidative damage, increased anti-oxidative defense, and alleviated cognitive impairment; Presence in brain homogenates ([12]; systemic administration of hesperidin to rats ref 30): presence of hesperidin was confirmed by brain homogenates; Inhibition mode on BChE ([16]; Dixon and Lineweaver–Burk plots): noncompetitive inhibition; Ki ([16]; Dixon plot): 93.6 µM |
| O=C1CC(c2ccc(O)cc2)Oc2cc(O)cc(O)c21 (stereo not drawn) [Naringenin] | 30.3 ± 2.06 | noncompetitive inhibition | 45.4 | 5.15 ± 0.98 | 6.95 ± 1.52 | 9.74 ± 0.41 | 10.5 ± 1.17 |  | 7.80 ± 1.25 | 5.84 ± 0.75 | > 100 | 42.7 ± 4.3 | noncompetitive inhibition | 47.1 | cross the BBB | 8.77 ± 0.74 | 6.88 ± 0.89 | Effect on scopolamine-induced amnesia [17]: significantly mitigated scopolamine-induced amnesia; Presence in cerebral cortexes of rats ([12]; intravenous naringenin 20 mg/kg ref 28): identified |
| COc1cc(O[C@@H]2O[C@H](CO[C@@H]3O[C@H](CO)[C@@H](O)[C@H](O)[C@H]3O)[C@@H](O)[C@H](O)[C@H]2O)c2c(O)c3c(=O)cc(C)oc3cc2c1 [Rubrofusarin-6-O-β-D-gentiobioside] |  |  |  |  |  |  |  |  |  |  |  |  |  |  |  |  |  | IC50 [18]: 15.9 ± 0.32 µM |
